Measured values published in US4794183A, “Certain tetrahydro-furan or pyran phosphate-ethylene or propylene ammonium derivatives” (Sankyo Company Limited, priority 1985, dated 1988).
Read-outs that look alike come from different tables or passages of the source.

Legend:
[1] = tested on: sarcoma 180; assay: Anti-tumor effect, survival of mice transplanted intraperitoneally with sarcoma 180 ascites cells; assay type: in vivo, mice (ICR/Jcl strain, female); conditions: for ILS (increase in lifespan) / No. surviving after 60 days: single dose, intraperitoneal; for ILS (increase in lifespan): (Tt-Tc) as percentage of Tc; for No. surviving after 60 days: survivors/number in test group; for mice kept alive at the end of 60 days: text summary of Table 8, dose not stated
Method: The test animals used were 8 week old female mice of the ICR/Jcl strain and were employed in groups of 5 mice for each test. Into each mouse were transplanted intraperitoneally 1×10^5 ascites cells of sarcoma 180. The day after transplantation, the test compound, dissolved in sterilized physiological saline, was administered in a single dose (in the amount shown in the following Table 8) intraperitoneally to the animals. A control group was given an intraperitoneal administration of sterilized physiological saline without any active compound. The results are reported in the following Table 8 as follows: Tt /Tc, where Tt is the mean survival time (in days) of the mice of a test group (i.e. to which one of the test compound was administered) and Tc is the mean survival time (in days) of the control group; ILS (%), i.e. the increase in lifespan, which is calculated as (Tt -Tc) expressed as a percentage of Tc; and number surviving after 60 days, in which the first number is the number of animals surviving, and the second number is the number in the test group.

[2] = tested on: rabbits' platelet-rich plasma; assay: Platelet aggregating activity using rabbits' platelet-rich plasma (method of Born et al.); assay type: cell-based, rabbit; conditions: Oryctolagus cuniculus, read-out: Platelet aggregating effect (EC50)
Method: The platelet aggregating activity of the compounds of the invention using rabbits' platelet-rich plasma was examined by the method of Born et al. [Born et al., J. Physiol., 162, 67-68 (1962)]. The EC50 values were calculated. As in Experiment 2, C16 PAF was used as a reference.

[3] = rabbits' platelet-rich plasma, C16 PAF as reference

Row | SMILES | ILS (increase in lifespan) ([1]; 5 mg/kg) | No. surviving after 60 days ([1]; 5 mg/kg) | ILS (increase in lifespan) ([1]; 10 mg/kg) | No. surviving after 60 days ([1]; 10 mg/kg) | mice kept alive at the end of 60 days [1] | EC50 [2, 3] | ILS (increase in lifespan) ([1]; 20 mg/kg) | No. surviving after 60 days ([1]; 20 mg/kg) | EC50 ([2]; Platelet)
1 | CCCCCCCCCCCCCCCCOC[C@H]1OCCC[C@@H]1OP(=O)([O-])OCC[N+](C)(C)C (relative stereo) [Example 1, dl-(trans-2-Hexadecyloxymethyltetrahydropyran-3-yl) 2-(trimethylammonio)ethyl phosphate] | 169% | 2/5 | 136% | 1/5 | 2 of the 5 | > 100 µM |  |  | 
2 | CCCCCCCCCCCCCCCCO[C@@H]1CCCO[C@H]1COP(=O)([O-])OCC[N+](C)(C)C (relative stereo) [Example 3, dl-(trans-3-Hexadecyloxytetrahydropyran-2-yl)methyl 2-(trimethylammonio)ethyl phosphate] |  |  | 127% | 1/5 |  | > 400 µM |  |  | 
3 | CCCCCCCCCCCCCCCCOC[C@H]1OCCC[C@@H]1OP(=O)([O-])OCC[n+]1ccccc1 (relative stereo) [Example 6, dl-(trans-2-Hexadecyloxymethyltetrahydropyran-3-yl) 2-pyridinioethyl phosphate] |  |  |  |  |  |  | 155% | 0/5 | 
4 | CCCCCCCCCCCCCCCCOC[C@H]1OCC[C@@H]1OP(=O)([O-])OCC[N+](C)(C)C (relative stereo) [Example 5, dl-(trans-2-Hexadecyloxymethyltetrahydrofuran-3-yl) 2-(trimethylammonio)ethyl phosphate] | 157% | 2/5 |  |  | 2 of the 5 | > 100 µM |  |  | 
5 | CCCCCCCCCCCCCCCCOCC(COP(=O)([O-])OCC[N+](C)(C)C)OC(C)=O (stereo not shown) [C16 PAF, reference compound] |  |  |  |  |  |  |  |  | 0.009 µM
